{
  "source": "patent US10351566B2",
  "about": "“Therapeutic compounds for pain and synthesis thereof” (priority 2015, dated 2019)",
  "type_in_all_cases": "in vivo",
  "key": {"[1]": {"tested_on": "Taxol-induced neuropathic pain", "assay": "Taxol-induced neuropathic pain in mice, SC administration", "experimental": "(§1) Study outline in brief: Animals were dosed daily with Taxol for a period of 8 consecutive days (Day 0 to Day 7). On study day 8, prior to drug dosing, the decrease in withdrawal force (tactile allodynia) was verified by applying the von Frey test. After assigning the animals to their treatment groups, the animals were treated daily for a period of 5 days with either vehicle or Formula 1 at different doses. Gabapentin at a dose of 150 mg/kg was dosed only on days of testing (day 8 and day 14).\nResponse to heat stimuli was assessed using the hotplate apparatus set at 50ΥC. […] At baseline prior to Taxol dosing, the animals' response time to heat was 28.10±1.60 sec (vehicle-treated group). […] However, it is interesting to note that the beneficial activity of Formula 1 on heat hyperalgesia was more noticeable on study day 14, following repeated daily dosing of the compound, than on study day 8 following a single dose (Table 6)."}, "[2]": {"tested_on": "CCI-induced neuropathic pain", "assay": "Chronic constriction injury (CCI) model in mice, SC route", "conditions": "for Dose of maximum activity / Duration of activity at maximum effect / Level of activity (% of maximum effect-baseline) / Peak of activity (T): CCl model, SC, mice", "experimental": "Study outline in brief: The sciatic nerve of mice was exposed under anesthesia, and 3 loose ligations were placed around the nerve. Animals were allowed to recover for 3 days. Tactile allodynia (von Frey testing) and thermal (hot at 50±1° C. and cold at 2±1° C.) hyperalgesia were then assessed. Animals that experienced tactile allodynia were assigned to their treatment groups (vehicle, gabapentin and Formula 1 at different doses). Animals were subsequently treated daily for a period of 5 days with either vehicle or Formula 1 at different doses. Gabapentin at a dose of 150 mg/kg was dosed only on days of testing (day 3 and day 7)."}, "[3]": {"tested_on": "Taxol-induced neuropathic pain", "assay": "Taxol-induced neuropathic pain in mice, oral route", "experimental": "as §1\nThe activity of Formula 1 following oral administration was assessed using the Taxol model (see Study Outline in section 7.1). […] Gabapentin dosed at 150 mg/kg was active for a period of 4 h post-dosing."}, "[4]": {"tested_on": "CCI-induced neuropathic pain", "assay": "CCI model in mice, IP route", "conditions": "CCl model", "description": "IP route of administration was used for initial proof of principle studies with Formula 1. However, the chosen route of administration in most of the studies conducted with Formula 1 was either SC or PO. A brief protocol outline is provided in each section, for the purpose of understanding the results without elaborating on all the detailed procedures.\nTable 7 summarizes the activity of Formula 1 in mice models of neuropathic pain following repeated daily administration using different routes of administration. […] Treatment with Formula 1 show activity without CNS effect."}},
  "note": "Marks after values point to notes of the source that are not given here.",
  "data": [
    {"smiles": "NCC1(CC(=O)O)CCCCC1", "note": "[Gabapentin, gabapentin, reference compound]", "values": [
      {"measurement": "response time to heat (50° C.), Mean", "setting": "[1]; 150 mg/kg, Day 0 Pre-Taxol", "result": 28.5, "unit": "s"},
      {"measurement": "response time to heat (50° C.), Mean", "setting": "[1]; 150 mg/kg, Day 8, 1 h", "result": "18.9* sec"},
      {"measurement": "response time to heat (50° C.), Mean", "setting": "[1]; 150 mg/kg, Day 8, 2 h", "result": "22.5* sec"},
      {"measurement": "response time to heat (50° C.), Mean", "setting": "[1]; 150 mg/kg, Day 8, 4 h", "result": 16.7, "unit": "s"},
      {"measurement": "response time to heat (50° C.), Mean", "setting": "[1]; 150 mg/kg, Day 8, 6 h", "result": 13.8, "unit": "s"},
      {"measurement": "response time to heat (50° C.), Mean", "setting": "[1]; 150 mg/kg, Day 8 Pre-dosing", "result": 11.1, "unit": "s"},
      {"measurement": "response time to heat (50° C.), Mean", "setting": "[1]; 150 mg/kg, Day 14, 1 h", "result": "25.1* sec"},
      {"measurement": "response time to heat (50° C.), Mean", "setting": "[1]; 150 mg/kg, Day 14, 2 h", "result": 25.0, "unit": "s"},
      {"measurement": "response time to heat (50° C.), Mean", "setting": "[1]; 150 mg/kg, Day 14, 4 h", "result": "25.1* sec"},
      {"measurement": "response time to heat (50° C.), Mean", "setting": "[1]; 150 mg/kg, Day 14, 6 h", "result": "18.7* sec"},
      {"measurement": "response time to heat (50° C.), Mean", "setting": "[1]; 150 mg/kg, Day 14 Pre-dosing", "result": 11.2, "unit": "s"},
      {"measurement": "response time to heat (50° C.), Mean", "setting": "[1]; 150 mg/kg, Day 17, No dosing", "result": 11.5, "unit": "s"},
      {"measurement": "period of increase in withdrawal force (von Frey)", "setting": "[1]; Taxol mice, 150 mg/kg", "result": 4, "unit": "h"},
      {"measurement": "Dose of maximum activity", "setting": "[1]; Taxol model, SC, mice", "result": 150, "unit": "mg/kg"},
      {"measurement": "Duration of activity at maximum effect", "setting": "[1]; Taxol model, SC, mice", "result": 4, "unit": "H"},
      {"measurement": "Level of activity (% of maximum effect-baseline)", "setting": "[1]; Taxol model, SC, mice", "result": 100, "unit": "%"},
      {"measurement": "Peak of activity (T)", "setting": "[1]; Taxol model, SC, mice", "result": "2-4 H"},
      {"measurement": "response time to cold plate", "setting": "[2]; CCI mice, 150 mg/kg", "result": "increased the response time of the animals to values that were higher than the baseline value"},
      {"measurement": "withdrawal force (von Frey)", "setting": "[2]; CCI mice, 150 mg/kg", "result": "significant, but not complete, reversal"},
      {"measurement": "Dose of maximum activity", "setting": "[2]; first SC line", "result": 150, "unit": "mg/kg"},
      {"measurement": "Duration of activity at maximum effect", "setting": "[2]; first SC line", "result": "4-6 H"},
      {"measurement": "Level of activity (% of maximum effect-baseline)", "setting": "[2]; first SC line", "result": 64, "unit": "%"},
      {"measurement": "Peak of activity (T)", "setting": "[2]; first SC line", "result": "2-3 H"},
      {"measurement": "Level of activity (% of maximum effect-baseline)", "setting": "[2]; second SC line (readout not given)", "result": ">100", "unit": "%"},
      {"measurement": "Dose of maximum activity", "setting": "[2]; second SC line", "result": 150, "unit": "mg/kg"},
      {"measurement": "Duration of activity at maximum effect", "setting": "[2]; second SC line", "result": "4-6 H"},
      {"measurement": "Peak of activity (T)", "setting": "[2]; second SC line", "result": "2-3 H"},
      {"measurement": "period of activity post-dosing", "setting": "[3]; Taxol mice, 150 mg/kg", "result": 4, "unit": "h"},
      {"measurement": "Dose of maximum activity", "setting": "[3]; Taxol model, PO, mice", "result": 150, "unit": "mg/kg"},
      {"measurement": "Duration of activity at maximum effect", "setting": "[3]; Taxol model, PO, mice", "result": 4, "unit": "H"},
      {"measurement": "Level of activity (% of maximum effect-baseline)", "setting": "[3]; Taxol model, PO, mice", "result": 100, "unit": "%"},
      {"measurement": "Peak of activity (T)", "setting": "[3]; Taxol model, PO, mice", "result": "2-4 H"},
      {"measurement": "Dose of maximum activity", "setting": "[4]", "result": 150, "unit": "mg/kg"},
      {"measurement": "Duration of activity at maximum effect", "setting": "[4]", "result": "4-6 H"},
      {"measurement": "Peak of activity (T)", "setting": "[4]", "result": "2-3 H"},
      {"measurement": "Level of activity (% of maximum effect-baseline)", "setting": "[4]; repeated daily administration", "result": 66, "unit": "%"}
    ]}
  ]
}
